Test results published in ChEMBL document CHEMBL5329159, “Anti-proliferative activity of nitroquinolone fused acylhydrazones as non-small cell human lung cancer agents” (RSC Med Chem, 2023).
The source made the active and inactive calls. The calls are words filed in the database; no cut-off is given here.

Legend:
HeLa = test: Cytotoxicity against human HeLa cells assessed as reduction in cell viability incubated for 72 hrs by MTT assay; format: functional, cell-based
MCF7 = test: Cytotoxicity against human MCF7 cells assessed as reduction in cell viability incubated for 72 hrs by MTT assay; format: functional, cell-based; details: MCF7, 72 h
[1] = Cytotoxicity against HEK cells assessed as reduction in cell viability upto 200 uM incubated for 72 hrs by MTT assay; format: toxicity, cell-based; details: human
A549 [2] = test: Cytotoxicity against human A549 cells assessed as reduction in cell viability incubated for 72 hrs by MTT assay; format: functional, cell-based; details: A549, 72 h
A549 [3] = test: Induction of nuclear fragmentation in human A549 cells incubated for 24 hrs by DAPI staining based fluorescence microscopic analysis; format: functional, cell-based
[4] = Induction of morphological changes in HEK cells assessed as cell detachment incubated for 24 hrs by inverted light microscopic analysis; format: toxicity, cell-based; details: human
A549 [5] = test: Induction of morphological changes in human A549 cells assessed as formation of floating cells by inverted light microscopic analysis; format: functional, cell-based
A549 [6] = test: Induction of chromatin condensation in human A549 cells incubated for 24 hrs by DAPI staining based fluorescence microscopic analysis; format: functional, cell-based
A549 [7] = test: Induction of cell cycle arrest in human A549 cells assessed as accumulation of cells at G2/M phase after 24 hrs by PI/RNase staining based flow cytometry analysis; format: functional
[8] = Induction of morphological changes in HEK cells assessed as cell blebbing incubated for 24 hrs by inverted light microscopic analysis; format: toxicity, cell-based; details: human
A549 [9] = test: Induction of cell cycle arrest in human A549 cells assessed as accumulation of cells at G0/G1 phase after 24 hrs by PI/RNase staining based flow cytometry analysis; format: functional
A549 [10] = test: Induction of morphological changes in human A549 cells assessed as membrane blebbing by inverted light microscopic analysis; format: functional, cell-based
A549 [11] = test: Induction of cell cycle arrest in human A549 cells assessed as accumulation of cells at S phase after 24 hrs by PI/RNase staining based flow cytometry analysis; format: functional
A549 [12] = test: Induction of apoptosis in human A549 cells by AO/EtBr staining based fluorescence microscopic analysis; format: functional, cell-based
A549 [13] = test: Induction of morphological changes in human A549 cells assessed as cell shrinkage by inverted light microscopic analysis; format: functional, cell-based

SMILES	IC50 (HeLa) [µM]	IC50 (MCF7) [µM]	Activity [1]	IC50 (A549 [2]) [µM]	Activity (A549 [3])	Activity [4]	Activity (A549 [5])	Activity (A549 [6])	Activity (A549 [7])	Activity [8]	Activity (A549 [9])	Activity (A549 [10])	Activity (A549 [11])	Activity (A549 [12])	Activity (A549 [13])
O=C(N/N=C1\CCNc2c1cc(Cl)cc2[N+](=O)[O-])c1cccnc1	26.8	20.5	Non-Toxic	23.1	–	–	–	–	–	–	–	–	–	–	–
O=C(N/N=C1\CCNc2c1cccc2[N+](=O)[O-])c1ccccc1O	24.5	20.2	Non-Toxic	15.8	–	–	–	–	–	–	–	–	–	–	–
COc1cccc2c1C(=O)c1c(O)c3c(c(O)c1C2=O)C[C@@](O)(C(=O)CO)C[C@@H]3O[C@H]1C[C@H](N)[C@H](O)[C@H](C)O1 [DOXORUBICIN]	13.5	11.6	Non-Toxic	–	–	–	–	–	–	–	–	–	–	–	–
O=C(N/N=C1\CCNc2c1cc(Cl)cc2[N+](=O)[O-])c1ccco1	32.5	25.5	Non-Toxic	24.5	–	–	–	–	–	–	–	–	–	–	–
O=C(N/N=C1\CCNc2c1cccc2[N+](=O)[O-])c1cccnc1	29.2	23.3	Non-Toxic	21.5	–	–	–	–	–	–	–	–	–	–	–
O=C(N/N=C1\CCNc2c1cc(Cl)cc2[N+](=O)[O-])c1cccs1	20.1	19.2	Non-Toxic	17.1	Active	Non-Toxic	Dose-Dependent Effect	Active	Active	Non-Toxic	Active	Dose-Dependent Effect	Active	Active	Dose-Dependent Effect
O=C(N/N=C1\CCNc2c1cc(Cl)cc2[N+](=O)[O-])c1ccccc1O	21.3	18.4	Non-Toxic	15.3	Active	Non-Toxic	Dose-Dependent Effect	Active	Active	Non-Toxic	Active	Dose-Dependent Effect	Active	Active	Dose-Dependent Effect
O=C(N/N=C1\CCNc2c1cccc2[N+](=O)[O-])c1ccco1	30.4	22.5	Non-Toxic	18.3	–	–	–	–	–	–	–	–	–	–	–
O=C(N/N=C1\CCNc2c1cccc2[N+](=O)[O-])c1cccs1	29.6	22.8	Non-Toxic	26.3	–	–	–	–	–	–	–	–	–	–	–
